One experiment concerns pathogenic bacteria. Briefly: in vivo activity in infected mice, last four lines of the table. The conditions noted are these: bacterium and dose in drawing 28, not readable; for IN VIVO number of survivors among the treated animals (head drawing 28): subcutaneous. Here is the method: (§1) In determining the in vivo activity of the quinoxaline-1,4-dioxides of this invention, the test compound is administered to mice which have been infected by […] injection of a lethal inoculum of pathogenic bacteria. The test compound is administered using a multiple dosing regimen and using either the oral (PO) or the subcutaneous (SC) route. The inoculum of bacteria varies from about 1 to about 10 times the amount needed to kill 100% of the mice under the conditions of the test. At the end of the test, the activity of the compound is assessed by counting the number of survivors among the treated animals.
(§2) In vitro and in vivo activity of representative compounds of this invention, determined as aforesaid, are reported in the following tabulation for compounds of the formula: [drawing 12]

For a further experiment, the system named is Strep. pyrogens. Nature of the experiment: in vitro antibacterial activity, two-fold serial dilution in Brain-Heart Infusion Broth (MIC). The format is cell-based. The conditions noted are these: overnight, anaerobic. Here is the method: (§3) The broth is inoculated with bacteria and with the test quinoxaline-1,4-dioxide and then it is incubated overnight under anerobic conditions. On the next day, the test is read visually. The minimum inhibitory concentration (MIC) of test compound is the lowest concentration which prevents turbidity, i.e., which prevents growth of the microorganism.
as §2

Experiment [1] concerns E. coli. The experiment is described as above. The format is cell-based. The conditions noted are these: Escherichia coli, overnight, anaerobic. Here is the method: as §3, §2
The test system of experiment [2] is E. coli. Briefly: in vivo activity in mice infected with a lethal inoculum of E. coli. The conditions noted are these: Escherichia coli, sc, subcutaneous, multiple dosing, read-out: IN VIVO E. coli, number of survivors among the treated animals. Here is the method:
as §1, §2

The subject of another experiment is Strep. pyogenes. Nature of the experiment: in vivo activity in mice infected with a lethal inoculum of Strep. pyogenes. The conditions noted are these: Streptococcus pyogenes, multiple dosing. The procedure:
as §1, §2

The mark [3] stands for this setting: oral, read-out: IN VIVO Strep. pyogenes, number of survivors among the treated animals, PO (data in parenthesis).
Setting [4] is: sc, subcutaneous, read-out: IN VIVO Strep. pyogenes, number of survivors among the treated animals.

≈ marks a conversion by molar mass, not a printed value. Where two headings read alike, the source gives them in different places.

Take `CN(C)C(=O)c1c(CS(=O)(=O)CCCCN2CCCCC2)[n+]([O-])c2ccccc2[n+]1[O-]` [N(CH3)2; drawing 30; H]: in the experiment with pathogenic bacteria, the “IN VIVO number of survivors among the treated animals, PO (data in parenthesis; head drawing 28)” value was 1/10 and the “IN VIVO number of survivors among the treated animals (head drawing 28)” value (shortened to “IN VIVO number … (head drawing 28)”) was 8/10. For the same molecule, in the experiment with Strep. pyrogens, the MIC (commonly the smallest concentration in the dilution series that meets the test's criterion for growth inhibition) was 6.25 µg/mL (≈ 13.9 µM). For the same molecule, it took 12.5 µg/mL (≈ 27.7 µM) to inhibit growth in the experiment with E. coli [1] (MIC).

For the molecule `NC(=O)c1c(CS(=O)(=O)CCCCN2CCCCC2)[n+]([O-])c2ccccc2[n+]1[O-]` [NH2; drawing 31; H], in the experiment on pathogenic bacteria, the “IN VIVO number of survivors among the treated animals, PO (data in parenthesis; head drawing 28)” value is 0/10 and the “IN VIVO number … (head drawing 28)” value is 9/10. In addition, the lowest concentration to inhibit growth in the experiment on Strep. pyrogens (MIC) was 12.5 µg/mL (≈ 29.6 µM). The molecule further returned an MIC against E. coli [1] of 25 µg/mL (≈ 59.2 µM).

As for `CCNC(=O)c1c(CS(=O)(=O)CCCCN2CCCCC2)[n+]([O-])c2ccccc2[n+]1[O-]` [NHCH2 CH3; drawing 32; H], in the experiment with pathogenic bacteria, the “IN VIVO number of survivors among the treated animals, PO (data in parenthesis; head drawing 28)” value is recorded as 7/10 and the “IN VIVO number … (head drawing 28)” value is 4/10. The molecule further registered an MIC with Strep. pyrogens of 6.25 µg/mL (≈ 13.9 µM). In addition, the MIC in the experiment with E. coli [1] was 12.5 µg/mL (≈ 27.7 µM).

`CNC(=O)c1c(CS(=O)(=O)CCCCN2CCCCC2)[n+]([O-])c2ccccc2[n+]1[O-]` [NHCH3; drawing 29; H]: in the experiment on pathogenic bacteria, the “IN VIVO number of survivors among the treated animals, PO (data in parenthesis; head drawing 28)” value is recorded as 7/10 and the “IN VIVO number … (head drawing 28)” value was 10/10. For the same molecule, the minimum inhibitory concentration (MIC) with Strep. pyrogens amounted to 6.25 µg/mL (≈ 14.3 µM). The same molecule displayed an MIC against E. coli [1] of 12.5 µg/mL (≈ 28.6 µM).

As to `CNC(=O)c1c(CSCCO)[n+]([O-])c2ccccc2[n+]1[O-]` [NHMe; SCH2 CH2 OH; H], the MIC in the experiment with Strep. pyrogens and in the experiment with E. coli [1] was 0.781 µg/mL (≈ 2.52 µM) throughout. Also, the responders at 25 mg/kg in the experiment with E. coli [2] is 100%. Further, the responders at 50 mg/kg with Strep. pyogenes (setting [3]) is 60%; in the experiment with Strep. pyogenes (setting [4]) it was 100%.

On to `CNC(=O)c1c(CS(=O)(=O)CCCO)[n+]([O-])c2ccccc2[n+]1[O-]` [NHMe; SO2 CH2 CH2 CH2 OH; H], for which the results for the MIC in the experiment on Strep. pyrogens and with E. coli [1] were 3.12 µg/mL (≈ 8.79 µM) and 12.5 µg/mL (≈ 35.2 µM), respectively. Also, the responders at 25 mg/kg in the experiment with E. coli [2] was 70%. Also, the results for the responders at 50 mg/kg with Strep. pyogenes (setting [3]) and in the experiment on Strep. pyogenes (setting [4]) were 30% and 90%, respectively.

In the case of `CCCNC(=O)c1c(CSCCO)[n+]([O-])c2ccccc2[n+]1[O-]` [NHPr; SCH2 CH2 OH; H], the MIC against Strep. pyrogens is 6.25 µg/mL (≈ 18.5 µM); with E. coli [1], 25 µg/mL (≈ 74.1 µM). Moreover, in the experiment with E. coli [2], the responders at 25 mg/kg came to 20%. Further, the responders at 50 mg/kg in the experiment on Strep. pyogenes (setting [3]) was determined as 30%; with Strep. pyogenes (setting [4]), 50%.

On to `CCCNC(=O)c1c(CS(=O)(=O)CCO)[n+]([O-])c2ccccc2[n+]1[O-]` [NHPr; SO2 CH2 CH2 OH; H], for which the MIC against Strep. pyrogens and with E. coli [1] was 3.12 µg/mL (≈ 8.46 µM) in each case. In addition, in the experiment with E. coli [2], the responders at 25 mg/kg was 20%. For the same molecule, the responders at 50 mg/kg in the experiment with Strep. pyogenes (setting [3]) amounted to 70%; in the experiment with Strep. pyogenes (setting [4]) it was 40%.

(Values after patent US4039540A, “3-Substituted quinoxaline-2-carboxamide-1,4-dioxides” (Pfizer Inc., priority 1975, dated 1977).)
